GI50, CC50 and IC50 data for seven compounds are collected here from ChEMBL document CHEMBL1177773, “Design, synthesis and anticancer activity of piperazine hydroxamates and their histone deacetylase (HDAC) inhibitory activity” (Bioorg Med Chem Lett, 2010).

The subject of one assay is NCI-H460. Kind of assay: Cytotoxicity against human NCI-H460 cells after 48 hrs by MTT assay. Type of assay: functional. The following applies: for CC50: read-out: LC50 (the source's name). (In general: Tetrazolium dyes change colour on reduction, which living cells bring about.)
The next assay deals with HCT-116. Briefly: Cytotoxicity against human HCT116 cells after 48 hrs by MTT assay. Type of assay: functional. The following applies: for CC50: read-out: LC50 (the source's name).
The subject of another assay is U-251. Kind of assay: Cytotoxicity against human U251 cells after 48 hrs by MTT assay. The class given is functional. The following applies: for CC50: read-out: LC50 (the source's name).
Another assay concerns HL-60. Kind of assay: Growth inhibition of human HL60 cells after 48 hrs. Type of assay: functional, cell-based. The following applies: HL-60, 48 h.
The next assay addresses T1, Histone deacetylase 8 (Homo sapiens, UniProt Q9BY41).
T1 sequence (Q9BY41 whole entry): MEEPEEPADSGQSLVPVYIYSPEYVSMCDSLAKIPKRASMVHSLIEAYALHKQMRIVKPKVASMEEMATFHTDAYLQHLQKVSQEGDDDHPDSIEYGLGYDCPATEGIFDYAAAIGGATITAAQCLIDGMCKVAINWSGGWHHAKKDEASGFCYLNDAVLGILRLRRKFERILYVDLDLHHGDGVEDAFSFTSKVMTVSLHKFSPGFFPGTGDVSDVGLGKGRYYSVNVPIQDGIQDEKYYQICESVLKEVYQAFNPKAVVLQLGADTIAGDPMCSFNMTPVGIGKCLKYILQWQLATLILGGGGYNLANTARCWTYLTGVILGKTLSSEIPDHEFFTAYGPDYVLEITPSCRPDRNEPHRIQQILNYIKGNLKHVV
Kind of assay: Inhibition of human HDAC8.

Consider `O=C1Nc2ccccc2/C1=N/NC(=S)N1CCN(C(=O)NO)CC1`, for which the GI50 – broadly, the concentration that inhibits growth by half – in the assay with NCI-H460 (Homo sapiens, NCI-H460, 48 h) was > 100 µM; in the assay with HCT-116 (Homo sapiens, HCT-116, 48 h), > 100 µM; with U-251 (Homo sapiens, U-251, 48 h), > 100 µM. In addition, the CC50 was > 100 µM with NCI-H460 (Homo sapiens, NCI-H460, 48 h); > 100 µM with HCT-116 (Homo sapiens, HCT-116, 48 h); > 100 µM in the assay with U-251 (Homo sapiens, U-251, 48 h).

Turning to `O=C(NO)N1CCN(C(=S)N/N=C/c2c3ccccc3cc3ccccc23)CC1`, the GI50 turned out to be 9.5 µM in the assay with NCI-H460 (Homo sapiens, NCI-H460, 48 h); 70 µM with HCT-116 (Homo sapiens, HCT-116, 48 h); 65 µM with U-251 (Homo sapiens, U-251, 48 h). Further, the CC50 in the assay with NCI-H460 (Homo sapiens, NCI-H460, 48 h) is > 100 µM; with HCT-116 (Homo sapiens, HCT-116, 48 h), > 100 µM; in the assay on U-251 (Homo sapiens, U-251, 48 h) it was > 100 µM.

Turning to `O=C(NO)N1CCN(C(=S)N/N=C/c2ccccc2O)CC1`, the values for the IC50 in the assay with HL-60 and at Histone deacetylase 8 were 0.6 µM and 33.7 µM, respectively. For the same compound, the 50% growth inhibitory concentration (GI50) in the assay with NCI-H460 (Homo sapiens, NCI-H460, 48 h) came out at 5.15 µM; in the assay on HCT-116 (Homo sapiens, HCT-116, 48 h), 8.6 µM; with U-251 (Homo sapiens, U-251, 48 h), 14.2 µM. The CC50 was > 100 µM in the assay on NCI-H460 (Homo sapiens, NCI-H460, 48 h); > 100 µM with HCT-116 (Homo sapiens, HCT-116, 48 h); > 100 µM in the assay on U-251 (Homo sapiens, U-251, 48 h).

Turning to `O=C(NO)N1CCN(C(=S)N/N=C/c2ccc(Cl)cc2)CC1`, half-maximal inhibition on Histone deacetylase 8 (IC50) was put at 43.2 µM. Further, the GI50 in the assay on NCI-H460 (Homo sapiens, NCI-H460, 48 h) came to 16 µM; in the assay on HCT-116 (Homo sapiens, HCT-116, 48 h) it was 11.6 µM; in the assay on U-251 (Homo sapiens, U-251, 48 h), 8.5 µM. In addition, the CC50 is > 100 µM with NCI-H460 (Homo sapiens, NCI-H460, 48 h); > 100 µM in the assay on HCT-116 (Homo sapiens, HCT-116, 48 h); > 100 µM with U-251 (Homo sapiens, U-251, 48 h).

As for `Cc1ccc(/C=N/NC(=S)N2CCN(C(=O)NO)CC2)cc1`, the GI50 with NCI-H460 (Homo sapiens, NCI-H460, 48 h) came to 51 µM; in the assay with HCT-116 (Homo sapiens, HCT-116, 48 h), 31 µM; in the assay with U-251 (Homo sapiens, U-251, 48 h), 27.5 µM. For the same compound, the CC50 in the assay with NCI-H460 (Homo sapiens, NCI-H460, 48 h) is > 100 µM; with HCT-116 (Homo sapiens, HCT-116, 48 h) it was > 100 µM; in the assay on U-251 (Homo sapiens, U-251, 48 h) it was > 100 µM.

As to `O=C(NO)N1CCN(C(=S)N/N=C/c2ccccc2Cl)CC1`, the concentration for 50% growth inhibition (GI50) amounted to 30 µM in the assay with NCI-H460 (Homo sapiens, NCI-H460, 48 h); 11.5 µM in the assay on HCT-116 (Homo sapiens, HCT-116, 48 h); 13.5 µM in the assay on U-251 (Homo sapiens, U-251, 48 h). For the same compound, the CC50 was > 100 µM in the assay on NCI-H460 (Homo sapiens, NCI-H460, 48 h); > 100 µM in the assay on HCT-116 (Homo sapiens, HCT-116, 48 h); > 100 µM in the assay on U-251 (Homo sapiens, U-251, 48 h).

On to `O=C(CCCCCCC(=O)Nc1ccccc1)NO` [VORINOSTAT], for which the figures for the GI50 in the assay on NCI-H460 and with U-251 were 8 µM and 6.5 µM, respectively. For the same compound, the CC50 with NCI-H460, in the assay on HCT-116 and with U-251 was > 100 µM in each case.
